# Assay results taken from patent US5506217A, “Phosphonates as anti-cancer agents” (The University of British Columbia, priority 1994, dated 1996).
# Read-outs that look alike come from different tables or passages of the source.
# Legend:
# [1] = test system: B-16/F10 melanoma cells; experiment: B-16/F10 melanoma metastasis in C57BL/6 mice; type: in vivo; conditions: 10 mg/kg IV (day 0, 4 and 8)
# Protocol: Highly metastatic B-16/F10 melanoma cells were injected into the tail veins of female C57BL/6 mice (1×10^5 cells per mouse). Treatment of one group of mice with the phosphonate compound of the above formula (compound VIII), dissolved into 0.5mL ethanol, 0.5 mL cremaphor and 9.0 mL phosphate buffered saline, began three days after the tumor cells were injected. lntramuscular injections of 0.2 mL of the phosphonate emulsion (10 mg/kg/day) were given for 5 days per week for 2 weeks. A second group of mice were treated with Adriamycin (10 mg/kg given intravenously on days 0, 4 and 8) as a known anti-cancer drug control group, while a third group of mice received the vehicle emulsion alone. The mice were examined every day for general health, behaviour and body weight. Counts of metastatic melanomic tumor colonies found in the lungs, general observations of metastasis to distant organs and examination of organs (liver, kidneys, lungs and spleen) were taken at autopsy 4 weeks after treatment.
# [2] = test system: WEHI-3B tumor cells; experiment: 3H-thymidine incorporation assay; type: cell-based; conditions: Mus musculus, WEHI3B; for viability at 6.25 µM / viability at 12.5 µM / viability at 25 µM / viability at 50 µM: percent [3H]thymidine uptake, WEHI-3B, read-out: Cell Viability (% of Control); for viability at 12.5 µM: 12.50 μM
# Protocol: (§1) Experiments were performed using a number of different rumor cell lines. Tumor cells were cultured in RPMI-1640 medium supplemented with 10% fetal bovine serum, penicillin (50 units/mL), streptomycin (50 μg/mL) and mercaptoethanol (5 μg/mL) in an atmosphere of 5% CO2. The cells were passaged weekly by serial 1/10 to 1/10,000 dilutions. The cell viability and growth were constantly monitored by staining with trypan blue exclusion dye or the incorporation of tritiated thymidine.
# (§2) Inhibition of ^3 H-thymidine incorporation into the DNA of cells by a test compound is an indirect measurement of cell kill or growth inhibition, and reflects the anti-cancer activity of the compound.
# Tumor cells (2×104 ^4 cells/well) were placed in 200 μL of medium in 96-well plastic microtiter plates; a further 5 μL of medium either with or without phosphonate was added. […] The cells were then harvested using a Brandel cell harvester (model M-12) and collected on Whatman glass microfilters. The radioactivity associated with the filters was quantified in a liquid scintillation counter, and the amount of ^3 H-thymidine incorporated into tumor cells treated with the phosphonate compound was calculated as a percentage of the amount of ^3 H-thymidine incorporated into untreated tumor cells.
# The biological activities of 4-hexadecylthio-3(S ) -3-methoxybutane-l-phosponocholine and its enantiomer 4-hexadecylthio-3(R)-3-methoxybutane-1-phosphonocholine were studied on several cancer cell lines. […] The cell viability, was determined as percent[^3 H]thymidine uptake into the cell DNA. The following results are mean of five samples ± S.D.
# [3] = test system: WEHI-3B tumor cells; experiment: colonogenic cell survival assay; type: cell-based; conditions: Mus musculus, WEHI3B, 120 h, methyl cellulose medium, five days, read-out: WEHI-3B Colonies Formed (Percentage of Control)
# Protocol: Inhibition of colony formation in soft agar medium (colonogenic cell survival assay) is a more rigorous and direct measurement of cell kill or growth inhibition, and reflects the anti-cancer activity of the test compound. Briefly, tumor cells were cultured in petri dishes in methylcellulose, with or without a phosphonate test compound, and the number of colonies formed during a 5-day incubation period were counted.
# Table 17 tabulates data obtained with two differrent phosphonate analogs using a colonogenic assay. Colonogenic assay is one of the most trusted tests for determination of effectiveness of an anti-cancer agent. The test is based on the formation of tumor colonies in vitro in a methyl cellulose or soft agar medium. The following results were obtained with the formation of colonies in methyl cellulose medium after five days in the presence or absence of four phosphonate analogs, two with a thioalkyl chain and two with an alkyloxy chain.
# [4] = test system: HL-60 tumor cells; experiment: 3H-thymidine incorporation assay; type: cell-based; conditions: Homo sapiens, HL-60 cells, read-out: Thymidine uptake (% of control)
# Protocol: as §1, §2
# Tumor cells (2×104 ^4 cells/well) were placed in 200 μL of medium in 96-well plastic microtiter plates; a further 5 μL of medium either with or without phosphonate was added. After incubation for 24, 48 or 72 hours at 37° C. in a humidified atmosphere containing 5% CO2, the wells were pulsed with 0.1 μCi of ^3 H-thymidine for an additional 24 hours. The cells were then harvested using a Brandel cell harvester (model M-12) and collected on Whatman glass microfilters. The radioactivity associated with the filters was quantified in a liquid scintillation counter, and the amount of ^3 H-thymidine incorporated into tumor cells treated with the phosphonate compound was calculated as a percentage of the amount of ^3 H-thymidine incorporated into untreated tumor cells.
# [5] = Table 3: 48 hours in title (text: 72 hours)
# [6] = 24 hours, read-out: Thymidine uptake (% of control)
# [7] = 48 hours, WEHI-3B cells, read-out: Thymidine uptake (% of control)
# [8] = Table 3: 48 hours in title (text: 72 hours), WEHI-3B cells, read-out: Thymidine uptake (% of control)
structure (smiles),measurement,setting,value
"COc1cccc2c1C(=O)c1c(O)c3c(c(O)c1C2=O)C[C@@](O)(C(=O)CO)C[C@@H]3O[C@H]1C[C@H](N)[C@H](O)[C@H](C)O1 [Adriamycin, reference compound]",melanomic tumor colonies in the lungs (in words),[1],none of the Adriamycin-treated mice developed melanomic tumor colonies in their lungs
same,Melanomic tumor colonies found in the lungs at autopsy,[1]; Mouse 1,0
same,Melanomic tumor colonies found in the lungs at autopsy,[1]; Mouse 2,0
same,Melanomic tumor colonies found in the lungs at autopsy,[1]; Mouse 3,0
same,Melanomic tumor colonies found in the lungs at autopsy,[1]; Mouse 4,0
same,Melanomic tumor colonies found in the lungs at autopsy,[1]; Mouse 5,0
same,Melanomic tumor colonies found in the lungs at autopsy,[1]; Mouse 6,0
"CCCCCCCCCCCCCCCCSC[C@H](CCP(=O)([O-])OCC[N+](C)(C)C)OC [Compound 1, 4hexadecylthio-3-O-methyl-3(S)-butane-phosphonocholine]",viability at 6.25 µM,[2],55 ± 0.5%
same,viability at 12.5 µM,[2],31 ± 3.4%
same,viability at 25 µM,[2],21 ± 0.2%
same,viability at 50 µM,[2],2 ± 1.4%
same,activity at 0.6 µM,[3],88%
same,activity at 1.25 µM,[3],95%
same,activity at 2.5 µM,[3],55%
same,activity at 5 µM,[3],52%
same,activity at 10 µM,[3],22%
same,activity at 20 µM,[3],9%
"CCCCCCCCCCCCCCCCSC[C@@H](CCP(=O)([O-])OCC[N+](C)(C)C)OC [Compound 2, 4hexadecylthio-3-O-methyl-3(R)-butane-phosphonocholine]",viability at 6.25 µM,[2],61 ± 0.4%
same,viability at 12.5 µM,[2],24 ± 2.7%
same,viability at 25 µM,[2],22 ± 4.6%
same,viability at 50 µM,[2],12 ± 1.2%
same,activity at 0.6 µM,[3],54%
same,activity at 1.25 µM,[3],44%
same,activity at 2.5 µM,[3],36%
same,activity at 5 µM,[3],21%
same,activity at 10 µM,[3],5%
same,activity at 20 µM,[3],0%
CCCCCCCCCCCCCCCCCCOCC(CP(=O)([O-])OCC[N+](C)(C)C)OC (stereo not shown) [compound V],activity at 0.62 µM,[4]; 48 hours,84 ± 5%
same,activity at 0.62 µM,[4]; [5],93 ± 4%
same,activity at 1.25 µM,[4]; 48 hours,76 ± 4%
same,activity at 1.25 µM,[4]; [5],81 ± 4%
same,activity at 2.5 µM,[4]; 48 hours,63 ± 4%
same,activity at 2.5 µM,[4]; [5],66 ± 3%
same,activity at 5 µM,[4]; 48 hours,24 ± 3%
same,activity at 5 µM,[4]; [5],16 ± 4%
same,activity at 10 µM,[4]; 48 hours,3 ± 2%
same,activity at 10 µM,[4]; [5],5 ± 1%
same,activity at 20 µM,[4]; 48 hours,1%
same,activity at 20 µM,[4]; [5],1 ± 0.9%
same,activity at 0.62 µM,[2]; [6],137 ± 6%
same,activity at 0.62 µM,[2]; [7],93 ± 6%
same,activity at 0.62 µM,[2]; [8],85 ± 3%
same,activity at 1.25 µM,[2]; [6],93 ± 7%
same,activity at 1.25 µM,[2]; [7],90 ± 5%
same,activity at 1.25 µM,[2]; [8],86 ± 4%
same,activity at 2.5 µM,[2]; [6],91 ± 4%
same,activity at 2.5 µM,[2]; [7],86 ± 8%
same,activity at 2.5 µM,[2]; [8],82 ± 6%
same,activity at 5 µM,[2]; [6],88 ± 11%
same,activity at 5 µM,[2]; [7],61 ± 6%
same,activity at 5 µM,[2]; [8],60 ± 4%
same,activity at 10 µM,[2]; [6],76 ± 6%
same,activity at 10 µM,[2]; [7],23 ± 2%
same,activity at 10 µM,[2]; [8],26 ± 3%
same,activity at 20 µM,[2]; [6],48 ± 4%
same,activity at 20 µM,[2]; [7],18 ± 8%
same,activity at 20 µM,[2]; [8],10 ± 3%
same,activity at 40 µM,"[2]; 40 μM, 24 hours, read-out: Thymidine uptake (% of control)",43 ± 15%
